According to ChEMBL document CHEMBL1833945, “Synthesis and anticonvulsant activity of new N-Mannich bases derived from 5-cyclopropyl-5-phenyl- and 5-cyclopropyl-5-(4-chlorophenyl)-imidazolidine-2,4-diones” (Bioorg Med Chem, 2011):
The source made the active and inactive calls. The calls are words filed in the database; no cut-off is given here.

Columns and labels:
Rattus norvegicus [1] = test: Neurotoxicity in Sprague-Dawley albino rat assessed as motor impairment at 30 mg/kg, po after 4 hrs by rotarod test; format: toxicity, organism-based; set-up: dose 30 mg/kg, route oral; conditions: in vivo
Rattus norvegicus [2] = test: Neurotoxicity in Sprague-Dawley albino rat assessed as motor impairment at 30 mg/kg, po after 2 hrs by rotarod test; format: toxicity, organism-based; set-up: dose 30 mg/kg, route oral; conditions: in vivo
Rattus norvegicus [3] = test: Neurotoxicity in Sprague-Dawley albino rat assessed as motor impairment at 30 mg/kg, po after 1 hrs by rotarod test; format: toxicity, organism-based; set-up: dose 30 mg/kg, route oral; conditions: in vivo
Rattus norvegicus [4] = test: Neurotoxicity in Sprague-Dawley albino rat assessed as motor impairment at 30 mg/kg, po after 0.5 hrs by rotarod test; format: toxicity, organism-based; set-up: dose 30 mg/kg, route oral; conditions: in vivo
Rattus norvegicus [5] = test: Neurotoxicity in Sprague-Dawley albino rat assessed as motor impairment at 30 mg/kg, po after 0.25 hrs by rotarod test; format: toxicity, organism-based; set-up: dose 30 mg/kg, route oral; conditions: in vivo
Rattus norvegicus [6] = test: Anticonvulsant activity in Sprague-Dawley albino rat assessed as protection against maximal electroshock-induced seizures at 30 mg/kg, po after 4 hrs; format: functional, organism-based; set-up: dose 30 mg/kg
Rattus norvegicus [7] = test: Anticonvulsant activity in Sprague-Dawley albino rat assessed as protection against maximal electroshock-induced seizures at 30 mg/kg, po after 0.5 hrs; format: functional, organism-based; set-up: dose 30 mg/kg
Rattus norvegicus [8] = test: Anticonvulsant activity in Sprague-Dawley albino rat assessed as protection against maximal electroshock-induced seizures at 30 mg/kg, po after 0.25 hrs; format: functional, organism-based; set-up: dose 30 mg/kg
Mus musculus [9] = test: Neurotoxicity in CF1 albino mouse assessed as impair in motor coordination at 300 mg/kg, ip after 0.5 hrs by rotarod test; format: toxicity, organism-based; set-up: dose 300 mg/kg, route intraperitoneal; conditions: in vivo
Mus musculus [10] = test: Neurotoxicity in ip dosed CF1 albino mouse assessed as minimum dose required to cause impair in motor coordination after 4 hrs by rotarod test; format: toxicity, organism-based; conditions: in vivo
Rattus norvegicus [11] = organism: Rattus norvegicus; test: Protective index, ratio of TD50 for neurotoxicity in Sprague-Dawley albino rat to ED50 for inhibition of maximal electroshock-induced seizures in Sprague-Dawley albino rat; format: functional
[12] = Neurotoxicity in oral dosed Sprague-Dawley albino rat assessed as motor impairment by rotarod test; format: toxicity, organism-based; conditions: in vivo
Rattus norvegicus [13] = test: Anticonvulsant activity in po dosed Sprague-Dawley albino rat assessed as protection against maximal electroshock-induced seizures; format: functional
Rattus norvegicus [14] = test: Anticonvulsant activity in po dosed Sprague-Dawley albino rat assessed as time to peak effect; format: functional
Mus musculus [15] = test: Anticonvulsant activity in CF1 albino mouse assessed as protection against maximal electroshock-induced seizures at 300 mg/kg, ip after 0.5 hrs; format: functional, organism-based; set-up: dose 300 mg/kg
Mus musculus [16] = test: Anticonvulsant activity in ip dosed CF1 albino mouse assessed as protection against maximal electroshock-induced seizures after 4 hrs; format: functional; conditions: read-out: MED
[17] = Lipophilicity, log P of compound; format: physicochemical; conditions: octanol/water
Mus musculus [18] = test: Toxicity in subcutaneous pentylenetetrazole-induced CF1 albino mouse assessed as myoclonic jerks at 300 mg/kg, ip after 4 hrs; format: organism-based; set-up: dose 300 mg/kg; conditions: in vivo, sc
Mus musculus [19] = test: Neurotoxicity in CF1 albino mouse assessed as impair in motor coordination at 300 mg/kg, ip after 4 hrs by rotarod test; format: toxicity, organism-based; set-up: dose 300 mg/kg, route intraperitoneal; conditions: in vivo
Mus musculus [20] = test: Neurotoxicity in ip dosed CF1 albino mouse assessed as minimum dose required to cause impair in motor coordination after 0.5 hrs by rotarod test; format: toxicity, organism-based; conditions: in vivo
Mus musculus [21] = test: Anticonvulsant activity in ip dosed CF1 albino mouse assessed as protection against maximal electroshock-induced seizures after 0.5 hrs; format: functional; conditions: read-out: MED
Rattus norvegicus [22] = test: Anticonvulsant activity in po dosed Sprague-Dawley albino rat assessed as protection against subcutaneous pentylenetetrazole-induced seizures; format: functional
Mus musculus [23] = test: Anticonvulsant activity in CF1 albino mouse assessed as protection against subcutaneous pentylenetetrazole-induced seizures at 300 mg/kg, […] after 4 hrs; format: functional, organism-based; set-up: dose 300 mg/kg
Mus musculus [24] = test: Neurotoxicity in CF1 albino mouse assessed as loss of rotard grasping at 300 mg/kg, ip after 0.5 hrs by rotarod test; format: toxicity, organism-based; set-up: dose 300 mg/kg, route intraperitoneal; conditions: in vivo
Mus musculus [25] = test: Anticonvulsant activity in ip dosed CF1 albino mouse assessed as protection against subcutaneous pentylenetetrazole-induced seizures after 4 hrs; format: functional; conditions: read-out: MED
Mus musculus [26] = test: Anticonvulsant activity in ip dosed CF1 albino mouse assessed as protection against subcutaneous pentylenetetrazole-induced seizures after 0.5 hrs; format: functional; conditions: read-out: MED
Mus musculus [27] = test: Neurotoxicity in CF1 albino mouse assessed as minimum dose causing loss of righting reflex at 300 mg/kg, ip after 4 hrs by rotarod test; format: toxicity, organism-based; set-up: dose 300 mg/kg, route intraperitoneal; conditions: in vivo
Rattus norvegicus [28] = test: Anticonvulsant activity in Sprague-Dawley albino rat assessed as protection against subcutaneous pentylenetetrazole-induced seizures at 50 mg/kg, po after 0.25 hrs; format: functional, organism-based; set-up: dose 50 mg/kg
Mus musculus [29] = test: Anticonvulsant activity in CF1 albino mouse assessed as protection against electrically-induced seizure at 100 mg/kg, ip after 0.25 hrs by 6Hz psychomotor seizure test; format: functional, organism-based; set-up: dose 100 mg/kg
Rattus norvegicus [30] = test: Neurotoxicity in Sprague-Dawley albino rat assessed as motor impairment at 50 mg/kg, po after 4 hrs by rotarod test; format: toxicity, organism-based; set-up: dose 50 mg/kg, route oral; conditions: in vivo
Rattus norvegicus [31] = test: Neurotoxicity in Sprague-Dawley albino rat assessed as motor impairment at 50 mg/kg, po after 2 hrs by rotarod test; format: toxicity, organism-based; set-up: dose 50 mg/kg, route oral; conditions: in vivo
Rattus norvegicus [32] = test: Neurotoxicity in Sprague-Dawley albino rat assessed as motor impairment at 50 mg/kg, po after 1 hrs by rotarod test; format: toxicity, organism-based; set-up: dose 50 mg/kg, route oral; conditions: in vivo
Rattus norvegicus [33] = test: Neurotoxicity in Sprague-Dawley albino rat assessed as motor impairment at 50 mg/kg, po after 0.5 hrs by rotarod test; format: toxicity, organism-based; set-up: dose 50 mg/kg, route oral; conditions: in vivo
Rattus norvegicus [34] = test: Neurotoxicity in Sprague-Dawley albino rat assessed as motor impairment at 50 mg/kg, po after 0.25 hrs by rotarod test; format: toxicity, organism-based; set-up: dose 50 mg/kg, route oral; conditions: in vivo

| logP [17] | SMILES | Activity (Rattus norvegicus [1]) | Activity (Rattus norvegicus [2]) | Activity (Rattus norvegicus [3]) | Activity (Rattus norvegicus [4]) | Activity (Rattus norvegicus [5]) | Activity (Rattus norvegicus [7]) | Activity (Mus musculus [9]) | Activity (Mus musculus [15]) | minimal effective dose (Mus musculus [16]) [mg/kg] | Activity (Mus musculus [19]) | minimal effective dose (Mus musculus [21]) [mg/kg] | Activity (Mus musculus [23]) | Activity (Mus musculus [24]) | minimal effective dose (Mus musculus [26]) [mg/kg] | further results |
| --- | --- | --- | --- | --- | --- | --- | --- | --- | --- | --- | --- | --- | --- | --- | --- | --- |
| 2.98 | O=C1NC(c2ccccc2)(C2CC2)C(=O)N1CN1CCN(CCc2ccccc2)CC1 (stereo not given) | Non-toxic | Non-toxic | Non-toxic | Non-toxic | Non-toxic | inactive | Non-toxic | inactive | 30 | – | – | – | – | – | Activity (Rattus norvegicus [6]): Active; Activity (Rattus norvegicus [8]): inactive; MTC (Mus musculus [10]): 300 mg/kg; PI (Rattus norvegicus [11]): >5.86; TD50 [12]: > 100 mg/kg; ED50 (Rattus norvegicus [13]): 17.1 mg/kg; Time (Rattus norvegicus [14]): 4 h; Activity (Mus musculus [18]): Toxic |
| 3.02 | O=C1NC(c2ccccc2)(C2CC2)C(=O)N1CN1CCc2ccccc2C1 (stereo not given) | Non-toxic | Non-toxic | Non-toxic | Non-toxic | Non-toxic | inactive | – | – | 300 | Non-toxic | 300 | – | – | – | Activity (Rattus norvegicus [6]): Active; Activity (Rattus norvegicus [8]): inactive; MTC (Mus musculus [20]): 100 mg/kg; Activity (Mus musculus [18]): Toxic |
| – | O=C1NC(=O)C(c2ccccc2)(c2ccccc2)N1 [PHENYTOIN] | Non-toxic | Non-toxic | Non-toxic | Non-toxic | Non-toxic | Active | – | – | 30 | – | 30 | inactive | – | – | MTC (Mus musculus [10]): 100 mg/kg; PI (Rattus norvegicus [11]): >35.58; TD50 [12]: > 1000 mg/kg; ED50 (Rattus norvegicus [22]): > 500 mg/kg; Time (Rattus norvegicus [14]): 1 h; MTC (Mus musculus [20]): 100 mg/kg |
| 3.3 | O=C1NC(c2ccccc2)(C2CC2)C(=O)N1CN1CCN(C/C=C/c2ccccc2)CC1 (stereo not given) | – | – | – | – | – | – | – | – | 100 | – | 100 | – | Toxic | 100 | minimal effective dose (Mus musculus [25]): 300 mg/kg; Activity (Mus musculus [27]): Toxic |
| 3.9 | CC(c1ccccc1)N1CCN(CN2C(=O)NC(c3ccc(Cl)cc3)(C3CC3)C2=O)CC1 (stereo not given) | – | – | – | – | – | – | – | – | 300 | Non-toxic | 300 | inactive | Toxic | – | – |
| – | O=C1NC(c2ccccc2)(C2CC2)C(=O)N1CN1CCN(c2ccccc2F)CC1 (stereo not given) | – | – | – | – | – | – | Non-toxic | inactive | 100 | Non-toxic | – | inactive | – | – | – |
| 2 | O=C1NC(c2ccc(Cl)cc2)(C2CC2)C(=O)N1CN1CCOCC1 (stereo not given) | – | – | – | – | – | – | – | – | 100 | – | 100 | – | Toxic | 100 | Activity (Rattus norvegicus [28]): inactive; Activity (Mus musculus [29]): inactive; Activity (Rattus norvegicus [30]): Non-toxic; Activity (Rattus norvegicus [31]): Non-toxic; Activity (Rattus norvegicus [32]): Non-toxic; Activity (Rattus norvegicus [33]): Non-toxic; Activity (Rattus norvegicus [34]): Non-toxic; minimal effective dose (Mus musculus [25]): 300 mg/kg; Activity (Mus musculus [27]): Toxic |
| – | O=C1NC(c2ccccc2)(C2CC2)C(=O)N1CN1CCN(c2ccccc2)CC1 (stereo not given) | – | – | – | – | – | – | Non-toxic | inactive | 100 | Non-toxic | – | inactive | – | 100 | – |
